Reference: US20160077084A1, “AMPHIBIAN OOCYTE OR EMBRYO BIOASSAY” (THE BOARD OF TRUSTEES OF THE UNIVERSITY OF ARKANSAS, priority 2013, published 2016)
“Also recorded” adds a separate entry of the source.

How the values were obtained:
[1] = tested on: Xenopus oocytes; assay: Xenopus oocyte bioassay: oocyte maturation (GVBD) in the absence of progesterone; format: cell-based; settings: screen at 100 μM
Protocol: (§1) Oocyte maturation was monitored at regular intervals using a high content image capture procedure. Immature stage VI Xenopus oocytes were transferred to wells of a flat bottom 96-well plate containing about 178 μL of L15 culture media. The oocytes were transferred using wide mouth 200 μL pipette tips with minimal transfer of culture medium (e.g., about 20 μL). Generally, the oocytes oriented with the dark-pigmented animal hemisphere facing up due to the higher density of the yolk-containing vegetal hemisphere. Incorrectly orientated oocytes were gently manipulated using a drawn-out capillary tube or other tool to rotate them into the correct orientation. […] The oocytes were incubated for about 16 hours (i.e., overnight) at 16-25° C. in the presence of 1% DMSO (i.e., 2 μL of 100% DMSO).
Oocyte maturation was stimulated by the addition of progesterone. For this, 2 μL of 1000× stock solution (2 mg/mL in ethanol) was added to the appropriate wells to yield a final concentration of 2 μg/mL (although other concentrations of progesterone may be employed). […]
The plate was imaged prior to and after addition of progesterone (i.e., images were taken at regular intervals over a period of 7 hours). Oocyte maturation was phenotypically assessed by the appearance of a white spot at the animal pole of the oocyte. […]

[2] = tested on: MAP kinase (MAPK); assay: Western blot of treated oocytes, MAP kinase phosphorylation; format: cell-based, Xenopus
Source text: (§2) To begin to decipher the mechanism of action of the compounds that modified oocyte maturation, their effects on regulators of the meiotic cell cycle were examined. In particular, Musashi (Msi1) phosphorylation, Msi2 phosphorylation, MAP kinase phosphorylation, and Cdc2 (also called CDK1) dephosphorylation were examined in Xenopus oocytes treated with a modifying compound or only DMSO (i.e., control). The oocytes were processed for Western blot analysis using standard procedures, and the blots were probed with antibodies specific for phosphorylated or non-phosphorylated forms of the proteins of interest.

[3] = tested on: Cdc2 (also called CDK1); assay: Western blot of treated oocytes, Cdc2 (CDK1) dephosphorylation / MPF activation; format: cell-based, Xenopus; settings: for dephosphorylation of cdc2 (CDK1), activation of MPF: activators, no progesterone, PNR-5-46 5 μM, JVM-9 100 μM (FIG. 8A)
Source text: as §2

[4] = tested on: Xenopus oocytes; assay: Xenopus oocyte bioassay: oocyte maturation (GVBD) in the absence of progesterone; format: cell-based; settings: for activation of GVBD: no progesterone (FIG. 6)
[5] = tested on: Xenopus oocytes; assay: Xenopus oocyte bioassay: progesterone-induced oocyte maturation (GVBD); format: cell-based
Protocol: as §1
Oocyte maturation was stimulated by the addition of progesterone. For this, 2 μL of 1000× stock solution (2 mg/mL in ethanol) was added to the appropriate wells to yield a final concentration of 2 μg/mL (although other concentrations of progesterone may be employed). The 96-well plate was imaged from the top-down (see FIG. 4E) using a 36-megapixel Nikon D800 SLR camera with an AF Micro Nikkor 60 mm, f/2.8 lens, mounted on a dedicated copy stand (with adjustable flanking light sources).
The plate was imaged prior to and after addition of progesterone (i.e., images were taken at regular intervals over a period of 7 hours). Oocyte maturation was phenotypically assessed by the appearance of a white spot at the animal pole of the oocyte. The white spot is due to migration of the germinal vesicle towards the animal pole prior to germinal vesicle breakdown (GVBD). The high resolution images were digitally zoomed after capture to analyze the maturation status of oocytes in individual wells of the plate (FIGS. 4A-D).
The Xenopus oocyte bioassay was used to screen a collection of about 2000 low molecular weight small molecules. Oocytes were distributed among multi-well plates essentially as described above in Example 1. The test compounds were dissolved in DMSO to make 100× stock solutions. The test compounds were added to the appropriate wells at a final concentration of 100 μM (and 1% DMSO). No drug control oocytes were exposed to 1% DMSO only. Sixteen hours later, progesterone was added to the appropriate wells, with the first and last wells of each plate containing the no drug control oocytes. The rate of maturation in the first and last wells served as an intra-assay control for time taken for progesterone addition across each multiwell plate. The plates were imaged essentially as described above in Example 1.

[6] = tested on: MCF-7 cells; assay: Mammosphere formation (breast cancer stem cell self-renewal), MCF-7; format: cell-based; settings: compound first 3 days, scored day 14 (P2), 50, 5 and 0.5 μM
Source text: (§3) Mammosphere culture growth presents a useful indicator of the presence of breast cancer cells with stem cell-like properties. Breast cancer cell lines grown as mammospheres (under non-adherent plating conditions) recapitulate the three-dimensional organization of tumors. Importantly, assessment of stem cell self-renewal capacity can be achieved through dispersion of mammospheres to single cells and subsequent limited dilution replating. […] At day 7, mammospheres were collected, dispersed to single cells and replated at limiting dilution (P1). Spheroids were scored at day 14 (P2). Mammosphere forming units (MFUs) are defined as spheroid bodies >100 μm (MCF-7 cells) or >65 μm (MDA MB231 cells) diameter after 7 (P1) or 14 (P2) days growth in non-adherent culture.

[7] = tested on: MDA MB231 cells; assay: Mammosphere formation (breast cancer stem cell self-renewal), MDA MB231; format: cell-based; settings: compound first 3 days, scored day 14 (P2), 50, 5 and 0.5 μM
Source text: as §3

[8] = tested on: MCF-7 or MDA MB231 cells; assay: General cell viability of breast cancer cells; format: cell-based; settings: 0.5 μM dose
[9] = tested on: SHSY5Y; assay: Neurosphere formation, neuroblastoma cell line SHSY5Y; format: cell-based; settings: lowest dose tested 0.5 μM (FIG. 11A)
Protocol: (§4) The activity of the three test compounds to inhibit neurosphere formation was also tested in a neuroblastoma cell line SHSY5Y and a glioblastomoa cell line U87. All three compounds attenuated neurosphere formation in both cell lines, to varying degrees of efficacy (FIGS. 11A,B). […] None of the compounds affected cell viability.

[10] = tested on: U87; assay: Neurosphere formation, glioblastoma cell line U87; format: cell-based; settings: lowest dose tested 0.5 μM (FIG. 11B)
Protocol: as §4

[11] = tested on: Musashi1 (Msi1); assay: Western blot of treated oocytes, Msi1 phosphorylation; format: cell-based, Xenopus
Source text: as §2

[12] = tested on: Musashi2 (Msi2); assay: Western blot of treated oocytes, Msi2 phosphorylation; format: cell-based, Xenopus; settings: FIG. 8B
Source text: as §2

[13] = activators, no progesterone, PNR-5-46 5 μM, JVM-9 100 μM (FIG. 8A)
[14] = in response to progesterone (FIG. 9)

Row | SMILES | progesterone-independent oocyte maturation (activator) [1] | phosphorylation of MAP kinase [2, 13] | dephosphorylation of cdc2 (CDK1), activation of MPF [3] | mammosphere formation relative to DMSO-treated control cells [6] | mammosphere formation relative to DMSO-treated control cells [7] | general cell viability [8] | neurosphere formation / stem cell self-renewal [9] | neurosphere formation / stem cell self-renewal [10] | also measured
1 | C/C1=C\CC[C@@]2(C)O[C@H]2[C@H]2OC(=O)[C@@H](CNc3nc4ccccc4[nH]3)[C@@H]2CC1 [JVM-9] | activation of maturation; also recorded: activators; also recorded: activated spontaneous oocyte maturation | promoted phosphorylation | dephosphorylation of cdc2 | – | – | – | – | – | activation of GVBD ([4]; 10 μM): less effective; activation of GVBD ([4]; 100 and 50 μM): activated GVBD
2 | C/C1=C\CC[C@@]2(C)O[C@H]2[C@H]2OC(=O)[C@@H](CNCCCn3ccnc3)[C@@H]2CC1 [JVM-20] | – | – | – | effectively inhibited | effectively inhibited | no significant effect | particularly effective | particularly effective | effect on progesterone-stimulated maturation ([5]; from 1 to 50 μM): accelerate; effect on progesterone-stimulated maturation ([5]; high dose (100 μM)): inhibit
3 | C/C1=C\CC[C@@]2(C)O[C@H]2[C@H]2OC(=O)/C(=C\c3ccc(N)cc3)[C@@H]2CC1 [PNR-5-41] | – | – | – | did not | did not | – | Significant inhibition | Significant inhibition | EC50 ([5]; Xenopus laevis, Oocyte, progesterone-induced, p<0.05, n=5 vs DMSO only, read-out: EC50 (inhibition of progesterone-induced maturation)): 5 µM; effect on rate of progesterone-induced oocyte maturation (inhibitor) ([5]; progesterone-induced): attenuation of progesterone-induced GVBD; also recorded: inhibitor; also recorded: inhibited progesterone-induced maturation in a dose-dependent manner; phosphorylation of MAP kinase [2, 14]: did not affect phosphorylation; de-phosphorylation and activation of cyclin B/CDK1 (MPF) [3, 14]: blocked; phosphorylation of Msi1 [11, 14]: did not affect phosphorylation
4 | C/C1=C\CC[C@@]2(C)O[C@H]2[C@H]2OC(=O)/C(=C\c3cccc(Br)c3)[C@@H]2CC1 [PNR-5-46] | hormone-independent activation of maturation; also recorded: activators; also recorded: induced oocyte maturation | promoted phosphorylation | dephosphorylation of cdc2 | effectively inhibited | effectively inhibited | no significant effect | not | not | activation (phosphorylation) of Msi2 [12]: triggered activation; activation (phosphorylation) of Msi1 ([11]; not shown): triggered activation; EC50 ([4]; Xenopus laevis, Oocyte, absence of progesterone, read-out: EC50 (activation of oocyte maturation)): 7 µM; percent of oocytes that initiated GVBD ([4]; by about 4 hours, no progesterone, 100 μM PNR-5-46 (FIG. 5)): About 35%
5 | CC(=O)[C@H]1CC[C@H]2[C@@H]3CCC4=CC(=O)CC[C@]4(C)[C@H]3CC[C@]12C [progesterone, reference compound] | – | – | – | – | – | – | – | – | percent of oocytes that started GVBD ([5]; by about 7 hours, progesterone-treated oocytes (FIG. 5)): About 35%
